Data from patent US9388208B2, “Pyrrolo[1,2-f][1,2,4]triazines useful for treating respiratory syncitial virus infections” (Gilead Sciences, Inc., priority 2013, dated 2016).
Where two headings read alike, the source gives them in different places.

How the values were obtained:
MT-4 cells = test: Cytotoxicity assay in MT-4 cells; format: cell-based; conditions: 5 days, Cell-Titer Glo
Procedure: (§1) The MT-4 cell line was obtained from the NIH AIDS Research and Reference Reagent Program (Germantown, Md.) and cultured in RPMI-1640 medium (Irvine Scientific, Santa Ana, Calif., Cat #9160) supplemented with 10% FBS, 100 units/mL penicillin, 100 units/mL streptomycin, and 2 mM L-Glutamine. The MT-4 cells were passaged twice per week to maintain cell densities below 0.6×10^6 cells/mL. Complete RPMI-1640 media containing 100× concentrations of 3-fold serially diluted compound, ranging from 26 nM to 530 μM, were stamped in quadruplicate into black 384-well plates. After compound addition, 2×10^3 MT-4 cells were added to each well using a MicroFlo liquid dispenser (BioTek, Winooski, Vt.) and the cells were cultured for 5 days at 37° C. in a 5% CO2 incubator. Following the incubation the cells were allowed to equilibrate to 25° C. and cell viability was determined by adding 25 μL of Cell-Titer Glo viability reagent. The mixture was incubated for 10 minutes at 25° C., and the luminescence signal was quantified on a Victor Luminescence plate reader. The CC50 value is defined as the concentration of compound that reduces cell viability by 50% as determined by the Cell-Titer Glo signal. The data were analyzed using Pipeline Pilot Plate Data Analytics Collection software (Version 7.0, Accelrys, San Diego, Calif.). CC50 values were calculated from a non-linear regression analysis using a 4-parameter sigmoidal dose-response equation: Y=Bottom+(Top−Bottom)/(1+10^[(Log CC50−X)*HillSlope]) where the Top and Bottom were fixed at 100% and 0% cell viability, respectively. CC50 values were calculated as the average±standard deviation of 3 independent experiments.

RSV strain A2 = test: Anti-RSV activity, infectious cytopathic cell protection assay in HEp-2 cells; format: cell-based, Respiratory Syncytial Virus (RSV)
Procedure: Antiviral activity against RSV is determined using an infectious cytopathic cell protection assay in HEp-2 cells. In this assay, compounds inhibiting viral infection and/or replication produce a cytoprotective effect against the virus-induced cell killing that can be quantified using a cell viability reagent. The techniques used here are novel adaptations of methods described in published literature (Chapman et al., Antimicrob Agents Chemother. 2007, 51(9):3346-53.)
HEp-2 cells are obtained from ATCC (Manassas, VI) and maintained in MEM media supplemented with 10% fetal bovine serum and penicillin/streptomycin. Cells are passaged twice a week and kept at subconfluent stage. Commercial stock of RSV strain A2 (Advanced Biotechnologies, Columbia, Md.) is titered before compound testing to determine the appropriate dilution of the virus stock that generates desirable cytopathic effect in HEp-2 cells.
For antiviral tests, HEp-2 cells are grown in large cell culture flasks to near confluency but not fully so. The compounds to be tested are prediluted in DMSO in 384-well compound dilution plates, either in an 8 or 40 sample per plate standardized dose response format. 3-fold serial dilution increments of each test compound are prepared in the plates and test samples are transferred via acoustic transfer apparatus (Echo, Labcyte) at 100 nl per well into cell culture assay 384-well plates. Each compound dilution is transferred in single or quadruplicate samples into dry assay plates, which are stored until assay is ready to go. The positive and negative controls are laid out in opposite on ends of the plate in vertical blocks (1 column).
Subsequently, an infectious mixture is prepared using an appropriate dilution of virus stock previously determined by titration with cells at a density of 50,000/ml and 20 uL/well is added to test plates w/compounds via automation (uFlow, Biotek). Each plate includes negative and positive controls (16 replicates each) to create 0% and 100% virus inhibition standards, respectively. Following the infection with RSV, testing plates are incubated for 4 days in a 37° C. cell culture incubator. After the incubation, a cell viability reagent, Cell TiterGlo (Promega, Madison, Wis.) is added to the assay plates, which are incubated briefly, and a luminescent readout is measured (Envision, Perkin Elmer) in all the assay plates. The RSV-induced cytopathic effect, percentage inhibition, is determined from the levels of remaining cell viability. These numbers are calculated for each tested concentration relative to the 0% and 100% inhibition controls, and the EC50 value for each compound is determined by non-linear regression as a concentration inhibiting the RSV-induced cytopathic effect by 50%. Various potent anti-RSV tool compounds are used as positive controls for antiviral activity.

HEp-2 cells = test: Cytotoxicity assay in HEp-2 cells; format: cell-based; conditions: uninfected HEp-2 cells, 4 days, CellTiter Glo
Procedure: (§2) Cytotoxicity of tested compounds is determined in uninfected HEp-2 cells in parallel with the antiviral activity using the cell viability reagent in a similar fashion as described before for other cell types (Cihlar et al., Antimicrob Agents Chemother. 2008, 52(2):655-65.). The same protocol as for the determination of antiviral activity is used for the measurement of compound cytotoxicity except that the cells are not infected with RSV. Instead, an uninfected cell mixture at the same density is added at 20 ul/well to plates containing prediluted compounds, also at 100 nl/sample. Assay plates are then incubated for 4 days followed by a cell viability test using the same CellTiter Glo reagent addition and measurement of luminescent readouts. Untreated cell and cells treated at 2 uM puromycin (Sigma, St. Louis, Mo.) serve as 100% and 0% cell viability control, respectively. The percent of cell viability is calculated for each tested compound concentration relative to the 0% and 100% controls and the CC50 value is determined by non-linear regression as a compound concentration reducing the cell viability by 50%.

[1] = target: T1, RSV ribonucleoprotein (RNP) complexes (Human respiratory syncytial virus A, UniProt P28887); test: RSV RNP assay (inhibition of RSV RNP transcription); format: biochemical, RSV A2; conditions: 90 minute incubation at 30° C., total radiolabeled transcripts
T1 construct: The supernatant (S3) fraction, containing the enriched RSV RNP complexes, was collected; endogenous in cells; host or cells: HEp-2 cells infected with RSV A2; detergent-extracted crude S3 fraction
T1 sequence (P28887 whole entry): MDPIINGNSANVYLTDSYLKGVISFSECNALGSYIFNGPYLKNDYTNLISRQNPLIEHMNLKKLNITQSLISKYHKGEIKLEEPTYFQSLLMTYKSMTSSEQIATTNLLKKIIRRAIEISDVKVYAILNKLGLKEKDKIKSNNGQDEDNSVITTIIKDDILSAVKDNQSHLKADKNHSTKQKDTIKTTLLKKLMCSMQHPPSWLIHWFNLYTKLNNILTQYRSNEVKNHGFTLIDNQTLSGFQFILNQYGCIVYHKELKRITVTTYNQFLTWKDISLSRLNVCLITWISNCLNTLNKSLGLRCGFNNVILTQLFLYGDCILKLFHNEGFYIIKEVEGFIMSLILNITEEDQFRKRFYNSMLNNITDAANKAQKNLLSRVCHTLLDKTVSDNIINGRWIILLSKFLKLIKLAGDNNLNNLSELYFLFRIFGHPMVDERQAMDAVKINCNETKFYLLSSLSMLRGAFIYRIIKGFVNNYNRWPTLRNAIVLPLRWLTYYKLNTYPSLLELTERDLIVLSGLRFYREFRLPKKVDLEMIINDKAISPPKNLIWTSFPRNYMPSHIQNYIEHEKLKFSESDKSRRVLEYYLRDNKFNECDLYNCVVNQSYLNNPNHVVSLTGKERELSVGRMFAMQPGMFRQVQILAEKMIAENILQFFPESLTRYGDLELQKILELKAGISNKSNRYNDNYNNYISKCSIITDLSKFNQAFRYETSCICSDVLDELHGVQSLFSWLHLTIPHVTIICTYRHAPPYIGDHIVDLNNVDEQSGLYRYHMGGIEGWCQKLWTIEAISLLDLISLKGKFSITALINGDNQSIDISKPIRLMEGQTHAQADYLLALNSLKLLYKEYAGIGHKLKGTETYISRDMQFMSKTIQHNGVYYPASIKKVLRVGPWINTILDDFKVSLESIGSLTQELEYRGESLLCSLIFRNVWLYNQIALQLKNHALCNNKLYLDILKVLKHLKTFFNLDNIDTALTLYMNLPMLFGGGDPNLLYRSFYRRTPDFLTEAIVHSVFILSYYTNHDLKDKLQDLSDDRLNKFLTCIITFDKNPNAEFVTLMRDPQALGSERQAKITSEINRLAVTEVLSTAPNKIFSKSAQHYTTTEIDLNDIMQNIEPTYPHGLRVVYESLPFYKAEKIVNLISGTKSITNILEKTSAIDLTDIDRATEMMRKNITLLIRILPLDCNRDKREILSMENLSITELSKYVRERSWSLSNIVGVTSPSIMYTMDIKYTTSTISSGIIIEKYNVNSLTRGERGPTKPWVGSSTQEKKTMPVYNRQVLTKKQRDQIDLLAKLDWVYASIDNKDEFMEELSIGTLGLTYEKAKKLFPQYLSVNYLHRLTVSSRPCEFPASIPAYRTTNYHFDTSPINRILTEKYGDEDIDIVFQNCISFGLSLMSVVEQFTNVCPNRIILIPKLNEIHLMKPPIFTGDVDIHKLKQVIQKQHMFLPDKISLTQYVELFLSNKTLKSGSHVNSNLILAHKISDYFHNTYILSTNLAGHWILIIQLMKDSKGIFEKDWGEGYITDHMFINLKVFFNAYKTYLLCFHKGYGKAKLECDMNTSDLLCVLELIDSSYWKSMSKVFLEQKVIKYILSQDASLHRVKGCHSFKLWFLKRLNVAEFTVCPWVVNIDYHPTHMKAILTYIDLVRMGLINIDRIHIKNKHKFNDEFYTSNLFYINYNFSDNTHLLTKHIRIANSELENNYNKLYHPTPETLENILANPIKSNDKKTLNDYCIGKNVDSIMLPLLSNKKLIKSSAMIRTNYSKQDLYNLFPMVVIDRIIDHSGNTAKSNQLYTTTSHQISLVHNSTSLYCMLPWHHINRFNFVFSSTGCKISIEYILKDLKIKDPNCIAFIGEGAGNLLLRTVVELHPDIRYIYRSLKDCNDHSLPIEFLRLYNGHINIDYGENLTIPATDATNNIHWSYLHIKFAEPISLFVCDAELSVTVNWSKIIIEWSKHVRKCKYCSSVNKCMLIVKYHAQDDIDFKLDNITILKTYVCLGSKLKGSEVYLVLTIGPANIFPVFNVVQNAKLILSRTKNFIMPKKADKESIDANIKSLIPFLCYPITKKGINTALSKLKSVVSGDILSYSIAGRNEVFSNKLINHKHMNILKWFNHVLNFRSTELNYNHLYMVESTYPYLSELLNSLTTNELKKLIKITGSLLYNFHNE
T1 sequence (P03421 whole entry, further chain): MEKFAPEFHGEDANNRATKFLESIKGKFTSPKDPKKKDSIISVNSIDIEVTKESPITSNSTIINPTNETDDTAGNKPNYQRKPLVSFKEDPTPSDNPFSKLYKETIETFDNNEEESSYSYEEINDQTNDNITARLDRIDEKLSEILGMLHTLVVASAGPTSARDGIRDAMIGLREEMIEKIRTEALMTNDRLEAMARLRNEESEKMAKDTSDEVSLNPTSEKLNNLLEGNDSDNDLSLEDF
Procedure: RSV ribonucleoprotein (RNP) complexes were prepared from a method modified from Mason at al (1). HEp-2 cells were plated at a density of 7.1×10^4 cells/cm^2 in MEM+10% fetal bovine serum (FBS) and allowed to attach overnight at 37° C. (5% CO2). Following attachment, the cells were infected with RSV A2 (M01=5) in 35 mL MEM+2% FBS. At 20 hours post-infection, the media was replaced with MEM+2% FBS supplemented with 2 μg/mL actinomycin D and returned to 37° C. for one hour. The cells were then washed once with PBS and treated with 35 mL of PBS+250 μg/mL lyso-lecithin for one minute, after which all liquid was aspirated. The cells were harvested by scrapping them into 1.2 mL of buffer A [50 mM TRIS acetate (pH 8.0), 100 mM potassium acetate, 1 mM DTT and 2 μg/mL actinomycin D] and lysed by repeated passage through an 18 gauge needle (10 times). The cell lysate was placed in ice for 10 minutes and then centrifuged at 2400g for 10 minutes at 4° C. The supernatant (S1) was removed and the pellet (P1) was disrupted in 600 uL of Buffer B [10 mM TRIS acetate (pH 8.0), 10 mM potassium acetate and 1.5 mM MgCl2] supplemented with 1% Triton X-100 by repeated passage through an 18 gauge needle (10 times). The resuspended pellet was placed in ice for 10 minutes and then centrifuged at 2400g for 10 minutes at 4° C. The supernatant (S2) was removed and the pellet (P2) was disrupted in 600 uL of Buffer B supplemented with 0.5% deoxycholate and 0.1% Tween 40. The resuspended pellet was placed in ice for 10 minutes and then centrifuged at 2400g for 10 minutes at 4° C. The supernatant (S3) fraction, containing the enriched RSV RNP complexes, was collected and the protein concentration determined by UV absorbance at 280 nm. Aliquoted RSV RNP S3 fractions were stored at −80° C.
Transcription reactions contained 25 μg of crude RSV RNP complexes in 30 μL of reaction buffer [50 mM TRIS-acetate (pH 8.0), 120 mM potassium acetate, 5% glycerol, 4.5 mM MgCl2, 3 mM DTT, 2 mM ethyleneglycol-bis(2-aminoethylether)-tetraacetic acid (EGTA), 50 μg/mL BSA, 2.5 U RNasin (Promega), ATP, GTP, UTP, CTP and 1.5 uCi [α-^32P] NTP (3000 Ci/mmol)]. The radiolabeled nucleotide used in the transcription assay was selected to match the nucleotide analog being evaluated for inhibition of RSV RNP transcription. Cold, competitive NTP was added at a final concentration of one-half its Km (ATP=20 μM, GTP=12.5 μM, UTP=6 μM and CTP=2 μM). The three remaining nucleotides were added at a final concentration of 100 μM.
To determine whether nucleotide analogs inhibited RSV RNP transcription, compounds were added using a 6 step serial dilution in 5-fold increments. Following a 90 minute incubation at 30° C., the RNP reactions were stopped with 350 μL of Qiagen RLT lysis buffer and the RNA was purified using a Qiagen RNeasy 96 kit. Purified RNA was denatured in RNA sample loading buffer (Sigma) at 65° C. for 10 minutes and run on a 1.2% agarose/MOPS gel containing 2M formaldehyde. The agarose gel was dried and exposed to a Storm phosphorimager screen and developed using a Storm phosphorimager (GE Healthcare). The concentration of compound that reduced total radiolabeled transcripts by 50% (IC50) was calculated by non-linear regression analysis of two replicates.

[2] = Cytotoxicity assay in HEp-2 cells; format: cell-based; conditions: human, uninfected HEp-2 cells, CellTiter Glo
Procedure: as §2

[3] = Cytotoxicity assay in MT-4 cells; format: cell-based; conditions: human, Cell-Titer Glo
Procedure: as §1

[4] = human respiratory syncytial virus, 96 h, HEp-2 cells infected with RSV A2, 4 days, Cell TiterGlo, read-out: EC50

| Structure (SMILES) | CC50 (MT-4 cells) | IC50 [1] | further results |
| --- | --- | --- | --- |
| N#C[C@]1(CO)O[C@@H](c2ccc3c(N)ncnn23)[C@H](O)[C@@H]1O [Example 1, (2R,3S,4R,5S)-5-(4-aminopyrrolo[1,2-f][1,2,4]triazin-7-yl)-3,4-dihydroxy-2-(hydroxymethyl)tetrahydrofuran-2-carbonitrile] | > 53000 nM |  | EC50 (RSV strain A2; HEp-2 cells infected with RSV A2, 4 days, Cell TiterGlo, read-out: EC50): 7300 nM; CC50 (HEp-2 cells): > 50000 nM |
| C=C[C@]1(COP(=O)(O)OP(=O)(O)OP(=O)(O)O)O[C@@H](c2ccc3c(N)ncnn23)[C@H](F)[C@@H]1O [Example 17, ((2R,3R,4R,5S)-5-(4-aminopyrrolo[2,1-f][1,2,4]triazin-7-yl)-4-fluoro-3-hydroxy-2-vinyltetrahydrofuran-2-yl)methyl tetrahydrogen triphosphate] |  | 560 nM |  |
| CC[C@]1(COP(=O)(O)OP(=O)(O)OP(=O)(O)O)O[C@@H](c2ccc3c(N)ncnn23)[C@H](F)[C@@H]1O [Example 18, ((2R,3R,4R,5S)-5-(4-aminopyrrolo[2,1-f][1,2,4]triazin-7-yl)-2-ethyl-4-fluoro-3-hydroxytetrahydrofuran-2-yl)methyl tetrahydrogen triphosphate] |  | 420 nM |  |
| [N-]=[N+]=N[C@]1(CO)O[C@@H](c2ccc3c(N)nc(F)nn23)[C@H](F)[C@@H]1O [Example 22, (2R,3R,4R,5S)-5-(4-amino-2-fluoropyrrolo[2,1-f][1,2,4]triazin-7-yl)-2-azido-4-fluoro-2-(hydroxymethyl)tetrahydrofuran-3-ol] | 32000 nM |  | EC50 (RSV strain A2; [4]): 570 nM; EC50 (RSV strain A2; human respiratory syncytial virus, HEp-2 anti-RSV activity, read-out: EC50 (HEp-2 anti-RSV activity)): < 100000 nM; CC50 at 4 days [2]: > 100000 nM |
| Nc1ncnn2c([C@@H]3O[C@@](CO)(CCl)[C@@H](O)[C@H]3O)ccc12 [Example 26, (2R,3S,4R,5S)-5-(4-aminopyrrolo[2,1-f][1,2,4]triazin-7-yl)-2-(chloromethyl)-2-(hydroxymethyl)tetrahydrofuran-3,4-diol] | > 57000 nM |  | CC50 at 5 days [3]: > 53000 nM; EC50 (RSV strain A2; [4]): > 50000 nM; CC50 at 4 days [2]: 42000 nM |
| [N-]=[N+]=N[C@]1(COP(=O)(O)OP(=O)(O)OP(=O)(O)O)O[C@@H](c2ccc3c(N)ncnn23)[C@H](F)[C@@H]1O [Example 27, ((2R,3R,4R,5S)-5-(4-aminopyrrolo[2,1-f][1,2,4]triazin-7-yl)-2-azido-4-fluoro-3-hydroxytetrahydrofuran-2-yl)methyl tetrahydrogen triphosphate] |  | 97 nM |  |
| [N-]=[N+]=N[C@]1(COP(=O)(O)OP(=O)(O)OP(=O)(O)O)O[C@@H](c2cc(F)c3c(N)ncnn23)[C@H](F)[C@@H]1O [Example 28, ((2R,3R,4R,5S)-5-(4-amino-5-fluoropyrrolo[2,1f-][1,2,4]triazin-7-yl)-2-azido-4-fluoro-3-hydroxytetrahydrofuran-2-yl)methyl tetrahydrogen triphosphate] |  | 86 nM |  |
| [N-]=[N+]=N[C@]1(COP(=O)(O)OP(=O)(O)OP(=O)(O)O)O[C@@H](c2ccc3c(N)nc(F)nn23)[C@H](F)[C@@H]1O [Example 29, ((2R,3R,4R,5S)-5-(4-amino-2-fluoropyrrolo[2,1-f][1,2,4]triazin-7-yl)-2-azido-4-fluoro-3-hydroxytetrahydrofuran-2-yl)methyl tetrahydrogen triphosphate] |  | 80 nM |  |
| N#C[C@]1(COP(=O)(O)OP(=O)(O)OP(=O)(O)O)O[C@@H](c2cc(F)c3c(N)ncnn23)[C@H](O)[C@@H]1O [Example 32, ((2R,3S,4R,5S)-5-(4-amino-5-fluoropyrrolo[2,1f-][1,2,4]triazin-7-yl)-2-cyano-3,4-dihydroxytetrahydrofuran-2-yl)methyl tetrahydrogen triphosphate] |  | 22 nM |  |
